The DC50 is the concentration at which degradation of the target reaches its halfway point. A high value points to degradation only at high concentration. One may read the Dmax as the greatest extent of degradation seen. Higher therefore signals deep degradation.

Our source for the DC50 and Dmax values is patent publication US20260317324A1, “BIFUNCTIONAL COMPOUNDS FOR DEGRADING BRAF VIA UBIQUITIN PROTEOSOME PATHWAY” (Nurix Therapeutics, Inc., priority 2023, published 2026).

A value given as a limit tells only on which side of the number the result lay.

In this experiment the target is T1, BRAF V600E (Homo sapiens, UniProt P15056, V600E).
T1 construct: endogenous C-terminal HiBiT fusion tag on BRAF V600E allele; endogenous in cells; host or cells: A375 clone 1F10 (CRISPR-Cas9 knock-in of the HiBiT tag; parental A375 from ATCC)
Description: BRAF HiBiT degradation assay, C-terminal HiBiT-tagged BRAF V600E A375 cells (clone 1F10), Nano-Glo HiBiT Lytic assay. It counts as cell-based. The conditions noted are these: A375 (BRAF V600E); for DC50: DC50 at 50%: fitted conc. at Y=50; for Dmax: A-375, percentage protein degraded at maximal compound effect relative to DMSO. The essentials: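 Endogenous BRAF V600E-HiBiT A375 (1F10), 10,000 cells/well, 24 h preculture; cpd 11-pt, 1 μM–0.01 nM half-log, n=2, 0.2% DMSO; HiBiT lytic detection 10 min RT; DC50 = fitted conc at Y=50; Obs. Dmax vs DMSO.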
Background: With HiBiT, luminescence reflects the tagged protein that the partner subunit can reach.

T1 sequence (P15056 whole entry V600E, the tested form may be a part): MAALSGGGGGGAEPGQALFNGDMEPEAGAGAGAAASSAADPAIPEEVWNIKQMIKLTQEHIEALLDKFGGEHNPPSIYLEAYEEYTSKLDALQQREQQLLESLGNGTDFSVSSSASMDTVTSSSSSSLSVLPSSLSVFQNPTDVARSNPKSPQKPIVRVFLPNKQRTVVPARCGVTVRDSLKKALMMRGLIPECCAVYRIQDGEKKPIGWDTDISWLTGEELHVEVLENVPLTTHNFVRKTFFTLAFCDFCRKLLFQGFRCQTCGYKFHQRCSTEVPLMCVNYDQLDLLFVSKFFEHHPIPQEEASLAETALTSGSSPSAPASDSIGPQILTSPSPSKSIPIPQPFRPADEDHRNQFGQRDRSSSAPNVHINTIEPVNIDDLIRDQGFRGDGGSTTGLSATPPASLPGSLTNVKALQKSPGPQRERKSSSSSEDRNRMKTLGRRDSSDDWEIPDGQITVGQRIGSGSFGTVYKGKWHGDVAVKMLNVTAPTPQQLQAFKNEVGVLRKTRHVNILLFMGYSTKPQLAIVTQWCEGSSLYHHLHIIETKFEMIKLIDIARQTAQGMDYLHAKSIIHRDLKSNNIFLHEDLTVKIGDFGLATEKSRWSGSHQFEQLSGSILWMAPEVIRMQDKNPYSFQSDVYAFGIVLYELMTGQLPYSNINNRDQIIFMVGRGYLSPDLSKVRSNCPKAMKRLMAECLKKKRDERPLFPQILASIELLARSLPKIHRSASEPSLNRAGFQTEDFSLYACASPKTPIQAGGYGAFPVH

`CCCS(=O)(=O)Nc1cccc(-c2nc(C(C)(C)C)sc2-c2ccnc(Nc3cnn(C4CCN(CC5CCN(c6ccc(C(=O)NC7CCC(=O)NC7=O)nc6)CC5)CC4)c3)n2)c1F` (racemic) [Compound 79, Rac-5-{4-[(4-{4-[(4-{2-tert-butyl-4-[2-fluoro-3-(propane-1-sulfonamido)phenyl]-1,3-thiazol-5-yl}pyrimidin-2-yl)amino]-1H-pyrazol-1-yl}piperidin-1-yl)methyl]piperidin-1-yl}-N-[(3R)-2,6-dioxopiperidin-3-yl]pyridine-2-carboxamide] had a DC50 of less than 10 nM and a maximal degradation (Dmax) of 30 to 70%.

`CCCS(=O)(=O)Nc1cccc(-c2nc(C(C)(C)C)sc2-c2ccnc(NC[C@H]3CCN(CC4CCN(c5ccc(C(=O)N[C@H]6CCC(=O)NC6=O)nc5)CC4)C3)n2)c1F` [Compound 143, 5-(4-{[(3R)-3-{[(4-{2-tert-butyl-4-[2-fluoro-3-(propane-1-sulfonamido)phenyl]-1,3-thiazol-5-yl}pyrimidin-2-yl)amino]methyl}pyrrolidin-1-yl]methyl}piperidin-1-yl)-N-[(3S)-2,6-dioxopiperidin-3-yl]pyridine-2-carboxamide] displayed a DC50 of 50 to 500 nM and a Dmax of 30 to 70%.

As to `CCCS(=O)(=O)Nc1cccc(-c2cn(-c3ccc(N4CCN(CC5CCN(c6ccc(C7CCC(=O)NC7=O)cn6)CC5)CC4)cc3)nc2-c2ccncc2)c1F` (racemic) [Compound 20, Rac-N-{3-[1-(4-{4-[(1-{5-[(3R)-2,6-dioxopiperidin-3-yl]pyridin-2-yl}piperidin-4-yl)methyl]piperazin-1-yl}phenyl)-3-(pyridin-4-yl)-1H-pyrazol-4-yl]-2-fluorophenyl}propane-1-sulfonamide], the DC50 fell in the range of 10 to 50 nM and the greatest degradation seen (Dmax) was more than 70%.

The molecule `CCCS(=O)(=O)Nc1cccc(-c2nc(C3CCC4(CC3)CCN(C(=O)CN3CCN(CCCc5cccc6c5C(=O)N(C5CCC(=O)NC5=O)C6=O)CC3)CC4)sc2-c2ccnc(N)n2)c1F` (racemic) [Compound 229, Rac-N-{3-[5-(2-aminopyrimidin-4-yl)-2-(3-{2-[4-(3-{2-[(3R)-2,6-dioxopiperidin-3-yl]-1,3-dioxo-2,3-dihydro-1H-isoindol-4-yl}propyl)piperazin-1-yl]acetyl}-3-azaspiro[5.5]undecan-9-yl)-1,3-thiazol-4-yl]-2-fluorophenyl}propane-1-sulfonamide] gave a DC50 of more than 500 nM and a Dmax of 30 to 70%.

The molecule `CCCS(=O)(=O)Nc1cccc(-c2cn(-c3ccc(N4CCN(C(=O)C5CCN(c6ccc(C7CCC(=O)NC7=O)cc6)CC5)CC4)cc3)nc2-c2ccncc2)c1F` (racemic) [Compound 26, Rac-N-[3-(1-{4-[4-(1-{4-[(3R)-2,6-dioxopiperidin-3-yl]phenyl}piperidine-4-carbonyl)piperazin-1-yl]phenyl}-3-(pyridin-4-yl)-1H-pyrazol-4-yl)-2-fluorophenyl]propane-1-sulfonamide] registered a DC50 of 50 to 500 nM and a Dmax of 30 to 70%.

Molecule `CCCS(=O)(=O)Nc1cccc(-c2nc(C(C)(C)C)sc2-c2ccnc(NC3CC4(C3)CN(CC3CCN(CC5CCN(c6ccc(C7CCC(=O)NC7=O)cc6)CC5)CC3)C4)n2)c1F` (racemic) [Compound 142, Rac-N-{3-[2-tert-butyl-5-(2-{[2-({1-[(1-{4-[(3R)-2,6-dioxopiperidin-3-yl]phenyl}piperidin-4-yl)methyl]piperidin-4-yl}methyl)-2-azaspiro[3.3]heptan-6-yl]amino}pyrimidin-4-yl)-1,3-thiazol-4-yl]-2-fluorophenyl}propane-1-sulfonamide] yielded a DC50 of 50 to 500 nM and a maximal degradation (Dmax) of 30 to 70%.

In the case of `CCCS(=O)(=O)Nc1cccc(-c2nc(C)sc2-c2ccnc(Nc3ccc(N4CCN(CC5CCN(c6ccc([C@H]7CCC(=O)NC7=O)cc6)CC5)CC4)cn3)n2)c1F` [Compound 60, N-[3-(5-{2-[(5-{4-[(1-{4-[(3R)-2,6-dioxopiperidin-3-yl]phenyl}piperidin-4-yl)methyl]piperazin-1-yl}pyridin-2-yl)amino]pyrimidin-4-yl}-2-methyl-1,3-thiazol-4-yl)-2-fluorophenyl]propane-1-sulfonamide], the DC50 lay within 10 to 50 nM and the maximal degradation (Dmax) was more than 70%.

Turning to `CCCS(=O)(=O)Nc1cccc(-c2nc(C(C)(C)C)sc2-c2ccnc(Nc3cccc(C4CCN(C(=O)CN5CCC(c6ccc(NC7CCC(=O)NC7=O)cc6)CC5)CC4)c3)n2)c1F` (racemic) [Compound 103, Rac-N-{3-[2-tert-butyl-5-(2-{[3-(1-{2-[4-(4-{[(3R)-2,6-dioxopiperidin-3-yl]amino}phenyl)piperidin-1-yl]acetyl}piperidin-4-yl)phenyl]amino}pyrimidin-4-yl)-1,3-thiazol-4-yl]-2-fluorophenyl}propane-1-sulfonamide], the DC50 was in the range of 10 to 50 nM and the maximal degradation (Dmax) lay within 30 to 70%.

The molecule `CCCS(=O)(=O)Nc1cccc(-c2nc(C(C)(C)C)sc2-c2ccnc(Nc3cccc(OC4CCN(C(=O)C[C@H]5CCN(c6ccc(C7CCC(=O)NC7=O)cc6)C5)CC4)c3)n2)c1F` (mixture of isomers) [Compound 91, N-(3-{2-tert-butyl-5-[2-({3-[(1-{2-[(3R)-1-{4-[(3RS)-2,6-dioxopiperidin-3-yl]phenyl}pyrrolidin-3-yl]acetyl}piperidin-4-yl)oxy]phenyl}amino)pyrimidin-4-yl]-1,3-thiazol-4-yl}-2-fluorophenyl)propane-1-sulfonamide] showed a 50% degradation concentration (DC50) of 50 to 500 nM and a Dmax of 30 to 70%.

In turn, `CCCS(=O)(=O)Nc1cccc(-c2nc(C(C)(C)C)sc2-c2ccnc(Nc3ccc(C4CCN(C(=O)C5CCN(c6ccc7c(c6)C(=O)N(C6CCC(=O)NC6=O)C7=O)CC5)CC4)cc3)n2)c1F` (racemic) [Compound 155, Rac-N-(3-{2-tert-butyl-5-[2-({4-[1-(1-{2-[(3R)-2,6-dioxopiperidin-3-yl]-1,3-dioxo-2,3-dihydro-1H-isoindol-5-yl}piperidine-4-carbonyl)piperidin-4-yl]phenyl}amino)pyrimidin-4-yl]-1,3-thiazol-4-yl}-2-fluorophenyl)propane-1-sulfonamide] had a DC50 of 50 to 500 nM and a Dmax of 30 to 70%.

`CCCS(=O)(=O)Nc1cccc(-c2nc(C(C)(C)C)sc2-c2ccnc(Nc3cnn(C4CCN(CC[C@@H]5CCN(c6ccc(C7CCC(=O)NC7=O)cn6)C5)CC4)c3)n2)c1F` (mixture of isomers) [Compound 78, N-{3-[2-tert-butyl-5-(2-{[1-(1-{2-[(3R)-1-{5-[(3RS)-2,6-dioxopiperidin-3-yl]pyridin-2-yl}pyrrolidin-3-yl]ethyl}piperidin-4-yl)-1H-pyrazol-4-yl]amino}pyrimidin-4-yl)-1,3-thiazol-4-yl]-2-fluorophenyl}propane-1-sulfonamide] returned a DC50 of 10 to 50 nM and a Dmax of more than 70%.

In the case of `CCCS(=O)(=O)Nc1cccc(-c2nc(C(C)(C)C)sc2-c2ccnc(Nc3ccc(C4CCN(C(=O)C5CCN(c6ccc(C7CCC(=O)NC7=O)cn6)CC5)CC4)cc3)n2)c1F` (racemic) [Compound 156, Rac-N-(3-{2-tert-butyl-5-[2-({4-[1-(1-{5-[(3R)-2,6-dioxopiperidin-3-yl]pyridin-2-yl}piperidine-4-carbonyl)piperidin-4-yl]phenyl}amino)pyrimidin-4-yl]-1,3-thiazol-4-yl}-2-fluorophenyl)propane-1-sulfonamide], the 50% degradation concentration (DC50) is 10 to 50 nM and the greatest degradation seen (Dmax) is more than 70%.

For the molecule `CCCS(=O)(=O)Nc1cccc(-c2nc(C)sc2-c2ccnc(Nc3ccc(N4CCN(CC5(C)CCN(c6ccc(C7CCC(=O)NC7=O)cn6)CC5)CC4)cc3)n2)c1F` (racemic) [Compound 32, Rac-N-[3-(5-{2-[(4-{4-[(1-{5-[(3R)-2,6-dioxopiperidin-3-yl]pyridin-2-yl}-4-methylpiperidin-4-yl)methyl]piperazin-1-yl}phenyl)amino]pyrimidin-4-yl}-2-methyl-1,3-thiazol-4-yl)-2-fluorophenyl]propane-1-sulfonamide], the 50% degradation concentration (DC50) is less than 10 nM and the Dmax was more than 70%.

In turn, `CCCS(=O)(=O)Nc1cccc(-c2nc(C3CCC4(CC3)CCN(C(=O)CN3CCC5(CC3)CN(c3ccc6c(c3)C(=O)N(C3CCC(=O)NC3=O)C6=O)C5)CC4)sc2-c2ccnc(N)n2)c1F` (racemic) [Compound 237, Rac-N-{3-[5-(2-aminopyrimidin-4-yl)-2-{3-[2-(2-{2-[(3R)-2,6-dioxopiperidin-3-yl]-1,3-dioxo-2,3-dihydro-1H-isoindol-5-yl}-2,7-diazaspiro[3.5]nonan-7-yl)acetyl]-3-azaspiro[5.5]undecan-9-yl}-1,3-thiazol-4-yl]-2-fluorophenyl}propane-1-sulfonamide] had a DC50 of less than 10 nM and a Dmax of more than 70%.

In the case of `CCCS(=O)(=O)Nc1cccc(-c2nc(C(C)(C)C)sc2-c2ccnc(Nc3ccc(C4CCN(C[C@H]5CC[C@H](Oc6ccc(C7CCC(=O)NC7=O)cn6)CC5)CC4)cc3)n2)c1F` (mixture of isomers) [Compound 168, N-{3-[2-tert-butyl-5-(2-{[4-(1-{[(1r,4r)-4-({5-[(3RS)-2,6-dioxopiperidin-3-yl]pyridin-2-yl}oxy)cyclohexyl]methyl}piperidin-4-yl)phenyl]amino}pyrimidin-4-yl)-1,3-thiazol-4-yl]-2-fluorophenyl}propane-1-sulfonamide], the half-maximal degradation concentration (DC50) lay in the range of 10 to 50 nM and the Dmax was more than 70%.

The molecule `CCCS(=O)(=O)Nc1cccc(-c2nc(-c3ccc(N4CCN(C(=O)C5CCN(c6ccc(C7CCC(=O)NC7=O)cn6)CC5)CC4)cc3)sc2-c2ccnc(N)n2)c1F` (racemic) [Compound 188, Rac-N-{3-[5-(2-aminopyrimidin-4-yl)-2-{4-[4-(1-{5-[(3R)-2,6-dioxopiperidin-3-yl]pyridin-2-yl}piperidine-4-carbonyl)piperazin-1-yl]phenyl}-1,3-thiazol-4-yl]-2-fluorophenyl}propane-1-sulfonamide] returned a DC50 of less than 10 nM and a Dmax of more than 70%.
